From patent US11072616B2, “Cyclic peptides targeting alpha-4-beta-7 integrin” (Zealand Pharma A/S, priority 2015, dated 2021)
Read-outs that look alike come from different tables or passages of the source.

Key:
[1] = biological target: T1, integrin α4β7 (Homo sapiens, UniProt P13612+P26010); assay: Integrin α4β7—MAdCAM-1 competition assay (ELISA); format: binding
T1 sequence (P13612 34-977 limits assumed): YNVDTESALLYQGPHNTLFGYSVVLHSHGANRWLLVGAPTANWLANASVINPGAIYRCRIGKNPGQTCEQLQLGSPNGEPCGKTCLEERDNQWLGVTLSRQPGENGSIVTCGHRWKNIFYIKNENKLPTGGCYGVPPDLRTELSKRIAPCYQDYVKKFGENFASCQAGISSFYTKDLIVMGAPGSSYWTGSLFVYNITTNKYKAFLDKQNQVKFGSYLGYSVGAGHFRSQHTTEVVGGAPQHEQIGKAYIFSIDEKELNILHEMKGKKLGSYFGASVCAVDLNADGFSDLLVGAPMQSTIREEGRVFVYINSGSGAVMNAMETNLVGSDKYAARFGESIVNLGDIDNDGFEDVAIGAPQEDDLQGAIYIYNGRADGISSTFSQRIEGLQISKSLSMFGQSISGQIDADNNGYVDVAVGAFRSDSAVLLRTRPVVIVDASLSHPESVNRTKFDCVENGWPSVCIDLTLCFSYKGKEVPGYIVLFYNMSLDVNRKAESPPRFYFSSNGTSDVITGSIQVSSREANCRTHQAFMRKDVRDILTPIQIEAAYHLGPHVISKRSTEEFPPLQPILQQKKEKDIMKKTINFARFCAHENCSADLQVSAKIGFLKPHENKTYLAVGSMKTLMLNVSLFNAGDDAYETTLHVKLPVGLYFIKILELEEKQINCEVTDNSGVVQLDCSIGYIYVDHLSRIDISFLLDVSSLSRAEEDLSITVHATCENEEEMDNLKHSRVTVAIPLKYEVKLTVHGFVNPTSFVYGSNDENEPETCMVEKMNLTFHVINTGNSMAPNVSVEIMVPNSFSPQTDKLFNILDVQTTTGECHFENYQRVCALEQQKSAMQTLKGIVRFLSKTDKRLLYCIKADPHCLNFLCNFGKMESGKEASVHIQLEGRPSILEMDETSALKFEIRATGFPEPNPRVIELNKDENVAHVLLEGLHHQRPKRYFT
T1 sequence (P26010 20-723 limits assumed): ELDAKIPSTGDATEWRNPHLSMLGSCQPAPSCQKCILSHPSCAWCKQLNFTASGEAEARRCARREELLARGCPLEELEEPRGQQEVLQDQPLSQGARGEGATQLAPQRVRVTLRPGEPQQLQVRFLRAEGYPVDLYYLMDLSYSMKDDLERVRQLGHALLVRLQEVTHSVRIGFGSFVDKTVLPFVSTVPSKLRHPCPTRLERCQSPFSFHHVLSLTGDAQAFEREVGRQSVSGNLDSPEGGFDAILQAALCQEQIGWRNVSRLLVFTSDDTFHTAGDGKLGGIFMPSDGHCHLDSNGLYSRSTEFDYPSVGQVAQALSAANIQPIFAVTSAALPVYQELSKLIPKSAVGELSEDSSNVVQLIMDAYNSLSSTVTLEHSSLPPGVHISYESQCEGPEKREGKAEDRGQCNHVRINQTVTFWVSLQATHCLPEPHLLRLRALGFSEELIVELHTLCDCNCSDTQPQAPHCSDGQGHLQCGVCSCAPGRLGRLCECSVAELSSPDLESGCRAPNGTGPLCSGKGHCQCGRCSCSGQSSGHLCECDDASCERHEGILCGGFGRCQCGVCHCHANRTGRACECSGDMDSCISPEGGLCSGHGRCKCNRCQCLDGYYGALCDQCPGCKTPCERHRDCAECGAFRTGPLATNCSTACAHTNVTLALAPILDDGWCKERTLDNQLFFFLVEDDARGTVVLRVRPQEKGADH
How it was run: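 Competitive ELISA in which serially diluted compound was incubated with the receptor system for 2 h at room temperature to equilibrium. Wash buffer contained 1 mM MnCl2. Bound Fc-tagged partner was detected with anti-human IgG Fc-HRP and TMB.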

[2] = Aqueous solubility assay; format: physicochemical; details: PBS pH 7.4, 4 h, room temperature; for Determined concentration Mean: mean of 3, maximal concentration evaluated 200, 500 or 1000 μM; for Determined concentration Rep 1: replicate 1; for Determined concentration Rep 2: replicate 2; for Determined concentration Rep 3: replicate 3
Method: Solutions were incubated for four hours at room temperature and stirred at 600 rpm and run in triplicate. Centrifugation was performed for 15 minutes at 6000 rpm and solution concentration was determined using HPLC-UV (photodiode array detector acquiring between 220 nm, and 300 nm wavelengths).

[3] = ratio a4b1 ELISA IC50 / a4b7 ELISA IC50

Row | Compound | Selectivity ELISA [1, 3] | Selectivity ELISA [1] | Determined concentration Mean [2] | Determined concentration Rep 1 [2] | Determined concentration Rep 2 [2] | Determined concentration Rep 3 [2]
1 | CC(C)C[C@@H]1NC(=O)c2ccc(-c3ccncc3)c(c2)CNC(=O)[C@H](Cc2ccc(O)cc2)NC(=O)[C@@H]2CCCN2[C@H](C(=O)NC(C)(C)C)[C@H](C)NC(=O)[C@H]([C@@H](C)O)NC(=O)[C@H](CC(=O)O)NC1=O [Compound 337] | 2.9 |  |  |  |  | 
2 | CC(C)C[C@@H]1NC(=O)c2ccc(-c3cccc(CN)c3)c(c2)CNC(=O)[C@H](Cc2ccc(O)cc2)NC(=O)[C@@H]2CCCN2[C@H](C(=O)NC(C)(C)C)[C@H](C)NC(=O)[C@H]([C@@H](C)O)NC(=O)[C@H](CC(=O)O)NC1=O [Compound 339] | 5.8 |  |  |  |  | 
3 | CC(C)C[C@@H]1NC(=O)c2ccc(-c3cccc4ncccc34)c(c2)CNC(=O)[C@@H]2CCCN2[C@H](C(=O)NC(C)(C)C)[C@H](C)NC(=O)[C@H]([C@@H](C)O)NC(=O)[C@H](CC(=O)O)NC1=O [Compound 347] | 1.3 |  |  |  |  | 
4 | CC(C)C[C@@H]1NC(=O)c2ccc(-c3ccccc3N3CCNCC3)c(c2)CNC(=O)[C@@H]2CCCN2[C@H](C(=O)NC(C)(C)C)[C@H](C)NC(=O)[C@H]([C@@H](C)O)NC(=O)[C@H](CC(=O)O)NC1=O [Compound 348] | 1.5 |  |  |  |  | 
5 | C[C@@H]1NC(=O)[C@H]([C@@H](C)O)NC(=O)[C@H](CC(=O)O)NC(=O)[C@H](CC(C)(C)C)NC(=O)c2ccc(-c3ccnc4ccccc34)c(c2)CNC(=O)[C@@H]2CCCN2[C@@H]1C(=O)NC(C)(C)C [Compound 355] | 1.4 |  |  |  |  | 
6 | CC(C)C[C@@H]1NC(=O)c2cc(cc(-c3ccncc3)c2)CNC(=O)[C@@H]2CCCN2[C@H](C(=O)NC(C)(C)C)[C@H](C)NC(=O)[C@H]([C@@H](C)O)NC(=O)[C@H](CC(=O)O)NC1=O [Compound 362] | 5.6 |  |  |  |  | 
7 | CC(C)C[C@@H]1NC(=O)c2ccc(-c3cccc(CN)c3)c(c2)CNC(=O)[C@@H]2CCCN2[C@H](C(=O)NC(C)(C)C)[C@H](C)NC(=O)[C@H]([C@@H](C)O)NC(=O)[C@H](CC(=O)O)NC1=O [Compound 382] | 2.0 |  |  |  |  | 
8 | CC(C)C[C@@H]1NC(=O)c2ccc(-c3ccc(N4CCN(C(=O)COCC(=O)N5CCN(c6ccc(-c7ccc8cc7CNC(=O)[C@@H]7CCCN7[C@H](C(=O)NC(C)(C)C)[C@H](C)NC(=O)[C@H]([C@@H](C)O)NC(=O)[C@H](CC(=O)O)NC(=O)[C@H](CC(C)C)NC8=O)cc6)CC5)CC4)cc3)c(c2)CNC(=O)[C@@H]2CCCN2[C@H](C(=O)NC(C)(C)C)[C@H](C)NC(=O)[C@H]([C@@H](C)O)NC(=O)[C@H](CC(=O)O)NC1=O [Compound 390] |  | 1.749 |  |  |  | 
9 | CC(C)C[C@@H]1NC(=O)[C@H](Cc2ccc(O)cc2)NC(=O)[C@@H]2CCCN2[C@H](C(=O)NC(C)(C)C)[C@H](C)NC(=O)[C@H]([C@@H](C)O)NC(=O)[C@H](CC(=O)O)NC1=O [UM0131995-05] |  |  | 898.5 µM | 883.9 µM | 897.3 µM | 914.7 µM
10 | CC(C)C[C@@H]1NC(=O)[C@@H]2CCCN2C(=O)[C@@H]2CCCN2[C@H](C(=O)NC(C)(C)C)[C@H](C)NC(=O)[C@H]([C@@H](C)O)NC(=O)[C@H](CC(=O)O)NC1=O [UM0132366-01] |  |  | 467.8 µM | 474.2 µM | 477.4 µM | 451.9 µM
11 | CC(C)C[C@@H]1NC(=O)[C@H](Cc2cscn2)NC(=O)[C@@H]2CCCN2[C@H](C(=O)NC(C)(C)C)[C@H](C)NC(=O)[C@H]([C@@H](C)O)NC(=O)[C@H](CC(=O)O)NC1=O [UM0132370-01] |  |  | 183.2 µM | 187.0 µM | 182.4 µM | 180.2 µM
12 | C=CCOc1ccc(C[C@@H]2NC(=O)[C@@H]3CCCN3[C@H](C(=O)NC(C)(C)C)[C@H](C)NC(=O)[C@H]([C@@H](C)O)NC(=O)[C@H](CC(=O)O)NC(=O)[C@H](CC(C)C)NC2=O)cc1 [UM0132371-01] |  |  | 834.5 µM | 786.7 µM | 837.3 µM | 879.6 µM
13 | CSCC[C@@H]1NC(=O)[C@@H]2CCCN2[C@H](C(=O)NC(C)(C)C)[C@H](C)NC(=O)[C@H]([C@@H](C)O)NC(=O)[C@H](CC(=O)O)NC(=O)[C@H](CC(C)C)NC1=O [UM0132374-01] |  |  | 183.1 µM | 179.4 µM | 184.0 µM | 185.9 µM
14 | CC(C)C[C@@H]1NC(=O)[C@@H](Cc2ccc(O)cc2)NC(=O)[C@@H]2CCCN2[C@H](C(=O)NC(C)(C)C)[C@H](C)NC(=O)[C@H]([C@@H](C)O)NC(=O)[C@H](CC(=O)O)NC1=O [UM0132375-02] |  |  | 954.5 µM | 966.6 µM | 960.0 µM | 936.8 µM
15 | CC(C)C[C@@H]1NC(=O)[C@H](CCCCN)NC(=O)[C@@H]2CCCN2[C@H](C(=O)NC(C)(C)C)[C@H](C)NC(=O)[C@H]([C@@H](C)O)NC(=O)[C@H](CC(=O)O)NC1=O [UM0132376-01] |  |  | 962.9 µM | 990.7 µM | 958.6 µM | 939.5 µM
16 | CC(C)C[C@@H]1NC(=O)[C@H](CCCN)NC(=O)[C@@H]2CCCN2[C@H](C(=O)NC(C)(C)C)[C@H](C)NC(=O)[C@H]([C@@H](C)O)NC(=O)[C@H](CC(=O)O)NC1=O [UM0132377-01] |  |  | 218.6 µM | 225.7 µM | 218.9 µM | 211.2 µM
17 | CC(C)C[C@@H]1NC(=O)CNC(=O)[C@H](Cc2ccc(O)cc2)NC(=O)[C@@H]2CCCN2[C@H](C(=O)NC(C)(C)C)[C@H](C)NC(=O)[C@H]([C@@H](C)O)NC(=O)[C@H](CC(=O)O)NC1=O [UM0134677-01] |  |  | 224.6 µM | 225.4 µM | 230.6 µM | 217.8 µM
18 | CC(C)C[C@@H]1NC(=O)[C@@H](Cc2ccncc2)NC(=O)[C@@H]2CCCN2[C@H](C(=O)NC(C)(C)C)[C@H](C)NC(=O)[C@H]([C@@H](C)O)NC(=O)[C@H](CC(=O)O)NC1=O [UM0134700-01] |  |  | 994.5 µM | 1044.8 µM | 933.2 µM | 950.6 µM
